# pIC50: −log10 of the molar value.
# Legend:
# [1] = target: NK1 receptors (Homo sapiens, UniProt P25103); assay: Binding of [4,5-3H-Leu10] substance P to human recombinant NK1 receptors expressed in CHO cell membranes; set-up: host or cells: CHO cells; conditions: pIC50 = -log IC50, concentration inhibiting by 50% the specific binding of [4,5-3H] substance P; tested as the free base/salt given in c1
# Procedure: The following test was designed to assess the affinity of test substances for human recombinant NK1 receptors expressed in Chinese Hamster Ovarian (CHO) cells.
# CHO cells expressing the human recombinant NK1 receptor are used. The cells were obtained from Euroscreen (Brussels, Belgium).
# Cells expressing the human NK1 receptor are routinely cultured in 175 cm2 flasks containing 75 ml of medium F12 (Ham) enriched with 2 mmol/l L-glutamine, 100 IU/ml penicilline, 100 μg/ml streptomycine, 1% sodium pyruvate, 2.5 μg/ml fungizone amphotericin B, 400 μg/ml geneticin and supplemented with 10% foetal calf serum. […] When subcultured, the cells are seeded at a concentration of 50,000 cells/cm2.
# Confluent cells are gently scraped and resuspended in 25 ml of phosphate buffered saline without calcium and magnesium. The cellular suspension is centrifuged at 1500×g for 3 min (4° C.). The cell pellet is homogenized in a 15 mmol/l Tris-HCl (pH 7.5) buffer, 2 mmol/l MgCl2, 0.3 mmol/l EDTA, 1 mmol/l EGTA. The crude membrane fraction is collected by two consecutive centrifugation steps at 40,000×g for 25 min (4° C.). The final pellet is resuspended in 20 mmol/l Tris-HCl (pH 7.4), 250 mmol/l sucrose buffer at a protein concentration ranging from 2 to 6 mg/ml and stored in liquid nitrogen. • 1.2.2. Test Design
# The inhibition constant (Ki) is determined using increasing concentrations of the test substance. The concentration range usually encompasses 6 log units with variable steps (0.3 to 1 log). Assays are performed in mono- or duplicate.
# Membranes are incubated at 25° C. for 60 min in 0.5 ml of a 50 mmol/l Tris-HCl buffer (pH 7.4) containing 2 mmol/l MgCl2, 100 μg/ml bacitracine, 0.1 to 0.4×10^−9 mol/l of [4,5^3H-Leu^10] substance P (specific activity>100 Ci/mmol) and increasing concentrations of the test substance. […] Membrane-bound and free radioligands are separated by rapid filtration through glass fiber filters (equivalent to Whatman GF/C or GF/B; VEL, Belgium) presoaked in 0.1% polyethyleneimine to reduce non specific binding. Samples and filters are rinsed by at least 6 ml of 50 mmol/l Tris-HCl (pH 7.4) buffer.
# Initial values for the different variables may be provided by the experimenter.
# [2] = tested on: isolated rat aorta contracted by 100 mM KCl; assay: Effect of compound on isolated rat aorta contracted by 100 mM KCl; conditions: 10^−5 M; contraction by 100 mM KCl
# Procedure: Rat thoracic aorta depolarized by 100 mM KCl develops a contraction induced by an influx of Ca^2+ into the smooth muscle cell. An inhibition of this contraction could predict a Ca^2+ antagonist activity.
# The method was adapted from Polster P. et al., J. Pharmacol. Exp. Ther. (1990), 255, 593: rings of thoracic aorta were prepared from male Wistar rats (250-400 g) and mounted under an optimal resting tension of 2 g in 10 ml organ baths containing modified Krebs' solution (NaCl 112 mM, NaHCO3 25 mM, KCl 5 mM, MgSO4 1.2 mM, CaCl2 2.5 mM, KH2PO4 1 mM and glucose 11.5 mM, pH 7.4). The bathing solution was maintained at a temperature of 37° C. and gassed with 95% O2 and 5% CO2. Isometric contractions were measured with a force transducer connected to an amplifier. A computer system was used to control data acquisition and fluid circulation through electrovalves. Drugs were manually injected into the bath.
# Each ring was allowed to equilibrate for 60 min in the modified Krebs' solution. […] After obtaining two reproducible control contractions, a 3rd contraction was induced and the test compound was added to the bathing medium for 2 hours. Only preparation in which the contractions were matched were used. Each tissue received only one concentration of the test compound. Appropriate control experiments were conducted in order to test the effect of the solvant.
# To normalize data, the change in tension due to the drug was compared to the change of tension due to the solvant and expressed as percentage of the induced relaxation of the initial contraction. Raw data were processed by a computer system and the pD′2 value was calculated following the method of Van Rossum J. M. et al., Arch. Int. Pharmacodyn. Ther. (1963), 143, 299.
# [3] = tested on: verapamil binding site of the L-type calcium channel; assay: Inhibition of [3H]D888 binding to the verapamil binding site of the L-type calcium channel (rat cerebral cortex membranes); conditions: 10 μmol/l of test substance
# Procedure: 200-250 g male Sprague-Dawley rats are sacrificed by decapitation. Cerebral cortices are quickly dissected on ice and homogenized in a 20 mmol/l Tris-HCl (pH 7.4) buffer containing 250 mmol/l sucrose (buffer A). The homogenate is centrifuged at 30,000 g for 15 min at 4° C. The resulting crude membrane pellet is resuspended in a 50 mmol/l Tris-HCl (pH 7.4) buffer and incubated 15 min at 37° C. before being centrifuged at 30,000×g for 15 min at 4° C. After two more washes under the same conditions, the final pellet is resuspended in buffer A at a protein concentration ranging from 15 to 25 mg/ml and stored in liquid nitrogen.
# Binding experiments are essentially performed according to Reynolds J. et al., J. Pharmacol. Exp. Ther. (1986), 237, 731-738. (1986) with slight modifications.
# Membranes (120-175 μg/assay) are incubated at 25° C. for 60 min in 0.5 ml of a 50 mmol/l Tris-HCl buffer (pH 7.4) containing 2 mmol/l MgCl2, 0.2 to 0.4×10-9 mol/l of [^3H]D888 (85 Ci/mmol; Amersham, Belgium) and 10 μmol/l of the test substance. The non specific binding (NSB) is defined as the residual binding observed in the presence 10 μM verapamil. Membrane-bound and -free radioligands are separated by rapid filtration through glass fiber filters (equivalent to Whatman GF/C or GF/B; VEL, Belgium) presoaked in 0.1% polyethyleneimine to reduce non specific binding. Samples and filters are rinsed by at least 6 ml of 50 mmol/l Tris-HCl (pH 7.4) buffer. […] The radioactivity trapped onto the filters is counted by liquid scintillation in a β-counter.
# The inhibition of the radioligand specific binding is calculated as follows: [formula] • where BI and Bo represent the binding observed in the presence and absence of the test substance respectively; and • BNS is the non specific binding.
# Data analysis is performed by a computerized non linear curve fitting method using a set of equations describing several binding models assuming competitive interactions between ligands (Weiland G. A. and P. B. Molinoff Life Science (1981), 29, 313-330; Molinoff P. et al. (1981) Life Sci., 29, 427-443).
# Sequence of NK1 receptors (P25103 whole entry): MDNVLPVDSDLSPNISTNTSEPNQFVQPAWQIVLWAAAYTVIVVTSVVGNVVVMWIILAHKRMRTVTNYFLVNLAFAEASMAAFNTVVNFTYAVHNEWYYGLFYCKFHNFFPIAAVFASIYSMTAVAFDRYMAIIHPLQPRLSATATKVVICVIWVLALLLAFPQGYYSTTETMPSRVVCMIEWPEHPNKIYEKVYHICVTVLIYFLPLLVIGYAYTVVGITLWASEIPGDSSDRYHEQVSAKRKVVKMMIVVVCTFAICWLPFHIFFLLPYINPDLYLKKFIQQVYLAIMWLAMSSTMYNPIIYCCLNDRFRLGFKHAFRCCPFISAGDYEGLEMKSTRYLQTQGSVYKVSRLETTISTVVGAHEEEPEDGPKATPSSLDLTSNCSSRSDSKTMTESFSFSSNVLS
Compound,pIC50 [1],Result: effect of compound on isolated rat aorta contracted by 100 mM KCl [2],% inhibition of [3H]D888 binding to the verapamil binding site of the L-type calcium channel [3]
CC(OCC(c1ccccc1)N1CCN(CCCCc2nnn[nH]2)CC1)c1cc(C(F)(F)F)cc(C(F)(F)F)c1 (stereo not drawn) [Compound 303],8.30,inactive à 10^−5 M,+ (+: inhibition comprised between 20 and 50%)
"O=C(O)C1CCC(N2CCN(C(COCc3cc(C(F)(F)F)cc(C(F)(F)F)c3)c3ccccc3)CC2)CC1 (stereo not drawn) [Compound 312, cis- or trans-4-{4-[2-(3,5-Bis-trifluoromethyl-benzyloxy)-1-phenyl-ethyl]-piperazin-1-yl}-cyclohexanecarboxylic acid]",7.60,inactive à 10^−5 M,0 (0: inhibition < 20%)
FC(F)(F)c1cc(COCC(c2ccccc2)N2CCN(CCCCc3nnn[nH]3)CC2)cc(C(F)(F)F)c1 (stereo not drawn) [Compound 297],7.70,inactive à 10^−5 M,+ (+: inhibition comprised between 20 and 50%)
O=S(=O)(O)CCCN1CCN(C(COCc2cc(C(F)(F)F)cc(C(F)(F)F)c2)c2ccccc2)CC1 (racemic) [Compound 160],7.50,inactive à 10^−5 M,0 (0: inhibition < 20%)
FC(F)(F)c1cc(COCC(c2ccccc2)N2CCN(CCOCc3nnn[nH]3)CC2)cc(C(F)(F)F)c1 (stereo not drawn) [Compound 300],7.50,inactive à 10^−5 M,+ (+: inhibition comprised between 20 and 50%)
O=C(O)CCCN1CCN(C(COCc2cc(C(F)(F)F)cc(C(F)(F)F)c2)c2ccccc2)CC1 (racemic) [Compound 232],7.30,inactive à 10^−5 M,+ (+: inhibition comprised between 20 and 50%)
Fc1ccc(C(COCc2cc(C(F)(F)F)cc(C(F)(F)F)c2)N2CCN(CCCCc3nnn[nH]3)CC2)cc1 (stereo not drawn) [Compound 301],7.80,inactive à 10^−5 M,+ (+: inhibition comprised between 20 and 50%)
"CC(C)COC(=O)COCCN1CCN(C(COCc2cc(C(F)(F)F)cc(C(F)(F)F)c2)c2ccccc2)CC1 (stereo not drawn) [Compound 287, (2-{4-[2-(3,5-Bis-trifluoromethyl-benzyloxy)-1-phenyl-ethyl]-piperazin-1-yl}-ethoxy)-acetic acid isobutyl ester]",7.50,inactive à 10^−5 M,+ (+: inhibition comprised between 20 and 50%)
FC(F)(F)c1cc(COC[C@@H](c2ccccc2)N2CCN(CCCCc3nnn[nH]3)CC2)cc(C(F)(F)F)c1 [Compound 299],7.80,inactive à 10^−5 M,+ (+: inhibition comprised between 20 and 50%)
"O=C(O)CCCCN1CCN(C(COCc2cc(C(F)(F)F)cc(C(F)(F)F)c2)c2ccccc2)CC1 (racemic) [Compound 233, 5-{4-[2-(3,5-Bis-trifluoromethyl-benzyloxy)-1-phenyl-ethyl]-piperazin-1-yl}-pentanoic acid]",7.50,inactive à 10^−5 M,0 (0: inhibition < 20%)
"O=C(O)CN1CCN(C(COCc2cc(C(F)(F)F)cc(C(F)(F)F)c2)c2ccccc2)CC1 (racemic) [Compound 229, {4-[2-(3,5-Bis-trifluoromethyl-benzyloxy)-1-phenyl-ethyl]-piperazin-1-yl}-acetic acid]",7.10,inactive à 10^−5 M,0 (0: inhibition < 20%)
"FC(F)(F)c1cc(COC[C@H](c2ccccc2)N2CCN(CCCCc3nnn[nH]3)CC2)cc(C(F)(F)F)c1 [Compound 298, (S)-1-[2-(3,5-Bis-trifluoromethyl-benzyloxy)-1-phenyl-ethyl]-4-[4-(1H-tetrazol-5-yl)-butyl]-piperazine]",7.80,inactive à 10^−5 M,+ (+: inhibition comprised between 20 and 50%)
"O=c1[nH]nc(CN2CCN(C(COCc3cc(C(F)(F)F)cc(C(F)(F)F)c3)c3ccccc3)CC2)[nH]1 (stereo not drawn) [Compound 295, 5-{4-[2-(3,5-Bis-trifluoromethyl-benzyloxy)-1-phenyl-ethyl]-piperazin-1-ylmethyl}-2,4-dihydro-[1,2,4]triazol-3-one]",7.20,inactive à 10^−5 M,− + (+: inhibition comprised between 20 and 50%)
O=C(O)c1ccc(CN2CCN([C@H](COCc3cc(C(F)(F)F)cc(C(F)(F)F)c3)c3ccccc3)CC2)cc1 [Compound 243],7.20,inactive à 10^−5 M,0 (0: inhibition < 20%)
"O=C(O)COCCN1CCN(C(COCc2cc(C(F)(F)F)cc(C(F)(F)F)c2)c2ccccc2)CC1 (racemic) [Compound 235, (2-{4-[2-(3,5-Bis-trifluoromethyl-benzyloxy)-1-phenyl-ethyl]-piperazin-1-yl}-ethoxy)-acetic acid]",7.20,inactive à 10^−5 M,0 (0: inhibition < 20%)

# Reference: patent US6916797B2, “α-arylethylpiperazine derivatives as neurokinin antagonists” (UCB, S.A., priority 2000, dated 2005)
